Literature values, collected in PMC11577316, “Tuning the Properties of Rigidified Acyclic DEDPA^2– Derivatives for Application in PET Using Copper-64” (Inorganic Chemistry, 2024).
Like-named read-outs stand apart in the source and are kept apart here. Marks after values point to notes of the source that are not given here.

How the values were obtained:
[1] = not given; remark: listed apart in the source
[2] = set-up: method as in PMID 22583103; settings: vs Ag/AgCl ref 28
[3] = not given; remark: listed apart in the source

Compound: O=C(O)c1cccc(CNCCNCc2cccc(C(=O)O)n2)n1 [DEDPA^2–, 6,6′-((ethane-1,2-diylbis(azanediyl))bis(methylene))dipicolinic acid]
- log KCuL (Cu(II) complex, 0.15 M NaCl ref 28): 19.16 ^d
- pCu (–log [Cu(II)]free, [L]tot = 10 μM, [Cu(II)]tot = 1 μM, column footnote c: 0.15 M NaCl ref 26): 18.5
- log K1^H ([1]; 0.1 M (Me4N)(NO3) ref 25): 8.69
- log K2^H ([1]; 0.1 M (Me4N)(NO3) ref 25): 6.18
- log K3^H ([1]; 0.1 M (Me4N)(NO3) ref 25): 3.08
- log K4^H ([1]; 0.1 M (Me4N)(NO3) ref 25): 2.33
- log K1^H ([1]; 0.15 M NaCl ref 26): 9.00
- log K2^H ([1]; 0.15 M NaCl ref 26): 6.30
- log K3^H ([1]; 0.15 M NaCl ref 26): 3.06
- log K4^H ([1]; 0.15 M NaCl ref 26): 2.59

Compound: O=C([O-])c1cccc(CNCCNCc2cccc(C(=O)[O-])n2)n1.[Cu+2] [[Cu(DEDPA)]]
- irreversible reduction peak [2]: −1.12 V

Compound: O=C([O-])c1cccc(CNCCNCc2cccc(C(=O)[O-])n2)n1.[64Cu+2] [[^64Cu(DEDPA)]]
- stability in serum [3]: poor stability in serum
